# Assay results from patent publication US20250311727A1, “SUBSTITUTED 2-AMINOAZINES AND SALTS THEREOF, AND USE THEREOF AS HERBICIDAL ACTIVE SUBSTANCES” (BAYER AKTIENGESELLSCHAFT, priority 2022, published 2025).
# Legend:
# Type in all cases: in vivo
# Setaria viridis [1] = assay: Pre-emergence herbicide efficacy at 320 g/ha, SETVI; conditions: scored visually after about 3 weeks vs untreated controls, 100% = plants have died
# Summary of the method: (§1)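 Seeds were sown in sandy loam and covered with soil; WP or EC formulations were then sprayed onto the soil surface at 320 g/ha in 600 L/ha water with 0.5% additive. After about 3 weeks in the greenhouse, efficacy was scored visually as % versus untreated controls (100% = plants dead, 0% = like control).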
# Amaranthus retroflexus [2] = assay: Post-emergence herbicidal efficacy at 320 g/ha, AMARE; conditions: rated visually after about 3 weeks vs untreated controls, 100% = plants have died
# Summary of the method: (§2)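 One-leaf-stage weeds, sandy loam pots, greenhouse; foliar spray of WP/EC, 0.5% additive, 600 L/ha water; visual rating at ~3 wk, 0–100% vs untreated.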
# Viola tricolor [3] = assay: Post-emergence herbicidal efficacy at 80 g/ha, VIOTR; conditions: rated visually after about 3 weeks vs untreated controls, 100% = plants have died
# From the text: (§3) Unwanted plants/weeds: • ABUTH: Abutilon theophrasti • ALOMY: Alopecurus myosuroides • AMARE: Amaranthus retroflexus • DIGSA: Digitaria sanguinalis • ECHCG: Echinochloa crus-galli • KCHSC: Kochia scoparia • LOLRI: Lolium rigidum • MATIN: Matricaria inodora • POAAN: Poa annua • POLCO: Polygonum convolvulus • SETVI: Setaria viridis • STEME: Stellaria media • VERPE: Veronica persica • VIOTR: Viola tricolor A. Post-Emergence Herbicidal Efficacy at 320 g/ha
# Seeds of monocotyledonous and dicotyledonous weeds and crop plants were placed in sandy loam in plastic or organic planting pots, covered with soil and cultivated in a greenhouse under controlled growth conditions. 2 to 3 weeks after sowing, the test plants were treated at the one-leaf stage. The compounds of the invention, formulated in the form of wettable powders (WP) or as emulsion concentrates (EC), were then sprayed onto the green parts of the plants as aqueous suspension or emulsion with addition of 0.5% additive at a water application rate of 600 l/ha (converted). After the test plants had been kept in the greenhouse under optimum growth conditions for about 3 weeks, the activity of the preparations was rated visually in comparison to untreated controls. For example, 100% activity=the plants have died, 0% activity=like control plants.
# Tables B1 to B11 below show the effects of selected compounds of the general formula (I) according to Table 1 on various harmful plants and an application rate corresponding to 80 g/ha, which were obtained by the experimental procedure mentioned above.
# Veronica persica [4] = assay: Post-emergence herbicidal efficacy at 320 g/ha, VERPE; conditions: rated visually after about 3 weeks vs untreated controls, 100% = plants have died
# Summary of the method: as §2
# Veronica persica [5] = assay: Pre-emergence herbicide efficacy at 80 g/ha, VERPE
# From the text: as §3
# (§4) Seeds of monocotyledonous and dicotyledonous weed plants and crop plants were placed in plastic or organic planting pots and covered with soil. The compounds of the invention, formulated in the form of wettable powders (WP) or as emulsion concentrates (EC), were then applied to the surface of the covering soil as aqueous suspension or emulsion with addition of 0.5% additive at a water application rate equivalent to 600 l/ha. After the treatment, the pots were placed in a greenhouse and kept under good growth conditions for the test plants. After about 3 weeks, the efficacy of the preparations was scored visually in comparison with untreated controls as percentages. For example, 100% activity=the plants have died, 0% activity=like control plants.
# (§5) Tables D1 to D12 below show the effects of selected compounds of the general formula (I) according to Table 1 on various harmful plants and an application rate corresponding to 80 g/ha, which were obtained by the experimental procedure mentioned above.
# Matricaria inodora [6] = assay: Pre-emergence herbicide efficacy at 320 g/ha, MATIN; conditions: scored visually after about 3 weeks vs untreated controls, 100% = plants have died
# From the text: as §3
# (§6) Seeds of mono- and dicotyledonous weed plants were placed in plastic pots in sandy loam soil (doubly sown with one species each of mono- or dicotyledonous weed plants per pot) and covered with soil. The compounds of the invention, formulated in the form of wettable powders (WP) or as emulsion concentrates (EC), were then applied to the surface of the covering soil as aqueous suspension or emulsion with addition of 0.5% additive at a water application rate of 600 litres per hectare (converted). After the treatment, the pots were placed in a greenhouse and kept under good growth conditions for the test plants. After about 3 weeks, the efficacy of the preparations was scored visually in comparison with untreated controls as percentages.
# (§7) For example, 100% activity=the plants have died, 0% activity=like control plants.
# (§8) Tables C1 to C12 below show the effects of selected compounds of the general formula (I) according to Table 1 on various harmful plants and at an application rate corresponding to 320 g/ha, which were obtained by the trial procedure specified above.
# Digitaria sanguinalis [7] = assay: Pre-emergence herbicide efficacy at 320 g/ha, DIGSA; conditions: scored visually after about 3 weeks vs untreated controls, 100% = plants have died
# Summary of the method: as §1
# Viola tricolor [8] = assay: Pre-emergence herbicide efficacy at 80 g/ha, VIOTR
# Summary of the method: (§9)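 Pre-emergence test: pots sown with weed seeds, then compound (WP or EC) sprayed on the covering soil as aqueous suspension/emulsion with 0.5% additive at 600 l/ha water, here 80 g/ha. Greenhouse growth for about 3 weeks. Efficacy scored visually versus untreated controls, 0% (as control) to 100% (plants died).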
# Kochia scoparia [9] = assay: Pre-emergence herbicide efficacy at 320 g/ha, KCHSC; conditions: scored visually after about 3 weeks vs untreated controls, 100% = plants have died
# Summary of the method: as §1
# Echinochloa crus-galli [10] = assay: Post-emergence herbicidal efficacy at 320 g/ha, ECHCG; conditions: rated visually after about 3 weeks vs untreated controls, 100% = plants have died
# Summary of the method: as §2
# Setaria viridis [11] = assay: Pre-emergence herbicide efficacy at 80 g/ha, SETVI
# Summary of the method: as §9
# Echinochloa crus-galli [12] = assay: Pre-emergence herbicide efficacy at 320 g/ha, ECHCG; conditions: scored visually after about 3 weeks vs untreated controls, 100% = plants have died
# Summary of the method: as §1
# Setaria viridis [13] = assay: Post-emergence herbicidal efficacy at 320 g/ha, SETVI; conditions: rated visually after about 3 weeks vs untreated controls, 100% = plants have died
# Summary of the method: as §2
# Abutilon theophrasti [14] = assay: Post-emergence herbicidal efficacy at 320 g/ha, ABUTH; conditions: rated visually after about 3 weeks vs untreated controls, 100% = plants have died
# Summary of the method: as §2
# Abutilon theophrasti [15] = assay: Pre-emergence herbicide efficacy at 320 g/ha, ABUTH; conditions: scored visually after about 3 weeks vs untreated controls, 100% = plants have died
# Summary of the method: as §1
# Kochia scoparia [16] = assay: Pre-emergence herbicide efficacy at 80 g/ha, KCHSC; conditions: scored visually after about 3 weeks vs untreated controls, 100% = plants have died
# From the text: as §3, §4, §5
# Digitaria sanguinalis [17] = assay: Post-emergence herbicidal efficacy at 320 g/ha, DIGSA; conditions: rated visually after about 3 weeks vs untreated controls, 100% = plants have died
# Summary of the method: as §2
# Amaranthus retroflexus [18] = assay: Post-emergence herbicidal efficacy at 80 g/ha, AMARE; conditions: rated visually after about 3 weeks vs untreated controls, 100% = plants have died
# Summary of the method: (§10)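 Weeds grown in sandy loam under greenhouse conditions and sprayed post-emergence at the one-leaf stage (2–3 weeks after sowing) with WP or EC formulations plus 0.5% additive, 600 l/ha water. Activity scored visually about 3 weeks later versus untreated controls (0% = like control, 100% = plants dead).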
# Matricaria inodora [19] = assay: Pre-emergence herbicide efficacy at 80 g/ha, MATIN; conditions: scored visually after about 3 weeks vs untreated controls, 100% = plants have died
# From the text: as §3, §4, §5
# Stellaria media [20] = assay: Pre-emergence herbicide efficacy at 320 g/ha, STEME; conditions: scored visually after about 3 weeks vs untreated controls, 100% = plants have died
# Summary of the method: as §1
# Amaranthus retroflexus [21] = assay: Pre-emergence herbicide efficacy at 80 g/ha, AMARE; conditions: scored visually after about 3 weeks vs untreated controls, 100% = plants have died
# Summary of the method: as §9
# Amaranthus retroflexus [22] = assay: Pre-emergence herbicide efficacy at 320 g/ha, AMARE; conditions: scored visually after about 3 weeks vs untreated controls, 100% = plants have died
# Summary of the method: as §1
# Kochia scoparia [23] = assay: Post-emergence herbicidal efficacy at 80 g/ha, KCHSC; conditions: rated visually after about 3 weeks vs untreated controls, 100% = plants have died
# Summary of the method: as §10
# Poa annua [24] = assay: Pre-emergence herbicide efficacy at 320 g/ha, POAAN; conditions: scored visually after about 3 weeks vs untreated controls, 100% = plants have died
# Summary of the method: as §1
# Veronica persica [25] = assay: Post-emergence herbicidal efficacy at 80 g/ha, VERPE; conditions: rated visually after about 3 weeks vs untreated controls, 100% = plants have died
# Summary of the method: as §10
# Veronica persica [26] = assay: Pre-emergence herbicide efficacy at 320 g/ha, VERPE; conditions: scored visually after about 3 weeks vs untreated controls, 100% = plants have died
# Summary of the method: as §1
# Kochia scoparia [27] = assay: Post-emergence herbicidal efficacy at 320 g/ha, KCHSC; conditions: rated visually after about 3 weeks vs untreated controls, 100% = plants have died
# Summary of the method: as §2
# Polygonum convolvulus = assay: Pre-emergence herbicide efficacy at 80 g/ha, POLCO; conditions: scored visually after about 3 weeks vs untreated controls, 100% = plants have died
# From the text: as §3, §4, §5
# Digitaria sanguinalis [28] = assay: Pre-emergence herbicide efficacy at 80 g/ha, DIGSA; conditions: scored visually after about 3 weeks vs untreated controls, 100% = plants have died
# Summary of the method: as §9
# Echinochloa crus-galli [29] = assay: Pre-emergence herbicide efficacy at 80 g/ha, ECHCG; conditions: scored visually after about 3 weeks vs untreated controls, 100% = plants have died
# From the text: as §3, §4, §5
# Stellaria media [30] = assay: Post-emergence herbicidal efficacy at 320 g/ha, STEME; conditions: rated visually after about 3 weeks vs untreated controls, 100% = plants have died
# Summary of the method: as §2
# Poa annua [31] = assay: Post-emergence herbicidal efficacy at 320 g/ha, POAAN; conditions: rated visually after about 3 weeks vs untreated controls, 100% = plants have died
# Summary of the method: as §2
# Lolium rigidum = assay: Pre-emergence herbicide efficacy at 320 g/ha, LOLRI; conditions: scored visually after about 3 weeks vs untreated controls, 100% = plants have died
# From the text: as §3, §6, §7, §8
structure (smiles),measurement,setting,value
N#Cc1cccc(Nc2ncc(F)cn2)c1-n1cc(C(F)(F)F)cn1 [Example 1-60],Pre-emergence efficacy at 320 g/ha against SETVI in %,Setaria viridis [1],90%
same,Post-emergence efficacy at 320 g/ha against AMARE in %,Amaranthus retroflexus [2],100%
same,Post-emergence efficacy at 80 g/ha against VIOTR in %,Viola tricolor [3],90%
same,Post-emergence efficacy at 320 g/ha against VERPE in %,Veronica persica [4],100%
same,Pre-emergence efficacy against VERPE,Veronica persica [5],80%
same,Pre-emergence efficacy at 320 g/ha against MATIN in %,Matricaria inodora [6],100%
same,Pre-emergence efficacy at 320 g/ha against DIGSA in %,Digitaria sanguinalis [7],100%
same,Pre-emergence efficacy against VIOTR,Viola tricolor [8],100%
same,Pre-emergence efficacy at 320 g/ha against KCHSC in %,Kochia scoparia [9],100%
same,Post-emergence efficacy at 320 g/ha against ECHCG in %,Echinochloa crus-galli [10],100%
same,Pre-emergence efficacy against SETVI,Setaria viridis [11],100%
same,Pre-emergence efficacy at 320 g/ha against ECHCG in %,Echinochloa crus-galli [12],90%
same,Post-emergence efficacy at 320 g/ha against SETVI in %,Setaria viridis [13],90%
same,Post-emergence efficacy at 320 g/ha against ABUTH in %,Abutilon theophrasti [14],90%
same,Pre-emergence efficacy at 320 g/ha against ABUTH in %,Abutilon theophrasti [15],90%
same,Pre-emergence efficacy at 80 g/ha against KCHSC in %,Kochia scoparia [16],100%
same,Post-emergence efficacy at 320 g/ha against DIGSA in %,Digitaria sanguinalis [17],90%
same,Post-emergence efficacy at 80 g/ha against AMARE in %,Amaranthus retroflexus [18],90%
same,Pre-emergence efficacy at 80 g/ha against MATIN in %,Matricaria inodora [19],100%
same,Pre-emergence efficacy at 320 g/ha against STEME in %,Stellaria media [20],100%
same,Pre-emergence efficacy at 80 g/ha against AMARE in %,Amaranthus retroflexus [21],100%
same,Pre-emergence efficacy at 320 g/ha against AMARE in %,Amaranthus retroflexus [22],100%
same,Post-emergence efficacy at 80 g/ha against KCHSC in %,Kochia scoparia [23],100%
same,Pre-emergence efficacy at 320 g/ha against POAAN in %,Poa annua [24],100%
same,Post-emergence efficacy at 80 g/ha against VERPE in %,Veronica persica [25],100%
same,Pre-emergence efficacy at 320 g/ha against VERPE in %,Veronica persica [26],100%
same,Post-emergence efficacy at 320 g/ha against KCHSC in %,Kochia scoparia [27],100%
same,Pre-emergence efficacy at 80 g/ha against POLCO in %,Polygonum convolvulus,100%
same,Pre-emergence efficacy at 80 g/ha against DIGSA in %,Digitaria sanguinalis [28],100%
same,Pre-emergence efficacy at 80 g/ha against ECHCG in %,Echinochloa crus-galli [29],80%
same,Post-emergence efficacy at 320 g/ha against STEME in %,Stellaria media [30],100%
same,Post-emergence efficacy at 320 g/ha against POAAN in %,Poa annua [31],100%
same,Pre-emergence efficacy at 320 g/ha against LOLRI in %,Lolium rigidum,90%
